How the values were obtained:
PNPLA3 I148M-tagRFP = biological target: T1, PNPLA3 I148M-tagRFP (Homo sapiens, UniProt Q9NST1, I148M); assay: Western blot anti-PNPLA3, Huh7 PNPLA3 I148M-tagRFP; assay type: cell-based; conditions: 5µM, 24h
T1 construct: host or cells: Huh7
T1 sequence (Q9NST1 1-481 I148M): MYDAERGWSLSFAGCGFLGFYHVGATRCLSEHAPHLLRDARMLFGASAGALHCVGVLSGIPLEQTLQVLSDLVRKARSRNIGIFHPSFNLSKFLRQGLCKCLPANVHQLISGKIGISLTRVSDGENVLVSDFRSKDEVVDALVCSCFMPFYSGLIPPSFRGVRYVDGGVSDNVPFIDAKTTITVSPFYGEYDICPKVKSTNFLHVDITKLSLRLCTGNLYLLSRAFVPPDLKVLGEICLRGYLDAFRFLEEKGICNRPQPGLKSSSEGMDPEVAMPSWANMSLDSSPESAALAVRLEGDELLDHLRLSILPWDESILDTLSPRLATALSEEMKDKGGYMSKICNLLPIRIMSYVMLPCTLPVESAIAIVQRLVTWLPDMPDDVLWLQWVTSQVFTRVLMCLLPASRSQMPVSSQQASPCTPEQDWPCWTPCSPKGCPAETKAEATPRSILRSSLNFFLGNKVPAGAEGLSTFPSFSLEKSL
Procedure: For SDS-PAGE and subsequent western blotting cells were harvested in 1x lysis buffer (50 mM Tris-Cl, pH 7.5, 150 mM NaCl, 1 mM EDTA, 1% Triton X-100) supplemented with complete mini protease inhibitor cocktail (Roche). Total protein concentration of samples was determined with a Bicinchoninic Acid (BCA) protein assay. Cell lysates were boiled for 10 min at 99°C with 1x NuPAGE LDS Sample Buffer and loaded onto a 4-12% Tris-Glycine SDS-PAGE gel. For immunoblotting proteins were transferred to a nitrocellulose membrane (0.2 μm pore size, Schleicher & Schuell) and blocked with Intercept (PBS) Blocking buffer (Licor), incubated with primary antibodies anti-PNPLA3 (1:500, C-8 Santa Cruz, SC-390252), anti-PNPLA3 (1:1000, Millipore, MABS2174) and anti-HSP90 (1:1000, Cell Signaling, #4877), and subsequently incubated with secondary antibodies IRDye 680 or IRDye 800 (1:2000; LI-COR Biosciences). Infrared signal was detected using the Odyssey imaging system (Licor). […]
a. Huh7, PNPLA3 I148M b. Huh7, PNPLA3 I148M-tagRFP […]
control NUV-244 control NUV-244
Supplemental Fig. 9: Western Blot NUV-244 a. […] PNPLA3 bands at 53kDa (unmodified in a.) or 80 kDa (PNPLA3 I148M-tagRFP) were quantified (signal above local background, normalized to loading control using LICOR Odyssey CLx / Image Studio) on two independent Western Blots and percent of intensity compared to DMSO controls calculated (Mean +/ - Stdev). […]

PNPLA2 = biological target: T2, PNPLA2 (Homo sapiens, UniProt Q96AD5); assay: nanoDSF thermal shift, PNPLA2 protein; assay type: binding; conditions: ligand 25 μM
T2 sequence (Q96AD5 1-504): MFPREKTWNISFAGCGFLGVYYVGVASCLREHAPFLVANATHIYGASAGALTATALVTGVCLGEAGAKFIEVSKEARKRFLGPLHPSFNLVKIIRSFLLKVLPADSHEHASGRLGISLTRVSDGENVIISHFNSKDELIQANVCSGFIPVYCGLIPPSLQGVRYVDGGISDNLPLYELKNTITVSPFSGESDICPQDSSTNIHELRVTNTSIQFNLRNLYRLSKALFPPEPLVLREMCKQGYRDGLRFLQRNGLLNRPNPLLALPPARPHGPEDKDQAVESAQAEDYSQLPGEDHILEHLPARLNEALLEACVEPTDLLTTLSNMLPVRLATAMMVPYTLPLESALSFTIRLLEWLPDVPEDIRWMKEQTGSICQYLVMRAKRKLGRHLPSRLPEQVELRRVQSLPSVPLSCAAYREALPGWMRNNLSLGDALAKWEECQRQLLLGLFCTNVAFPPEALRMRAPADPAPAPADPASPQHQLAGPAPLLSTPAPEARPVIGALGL
From the text: To investigate the mode of action of NUV-244, we evaluated its direct binding to the PNPLA3 I148M protein using nano differential scanning fluorimetry (nanoDSF). In this assay, compounds that bind to a target protein can lead to thermal stabilization, preventing protein denaturation, which is reflected in a shift of the protein melting curve.
Full-length wild-type PNPLA3 (Q9NST1), mutant PNPLA3 (I148M), and PNPLA2 (Q96AD5) were cloned into the pVL1393 vector with an N-terminal Flag-Tag. Proteins were expressed in SF9 cells infected at a multiplicity of infection (MOI) of 1 for 72 hours. Protein purification was performed using a two-step process. The first step involved affinity purification using M2 anti-Flag agarose beads. This was followed by gel filtration chromatography using a Superdex 200 column. Thermal melting experiments were carried out using a Prometheus NT.48 instrument (NanoTemper Technologies). Proteins were prepared in 20 mM Tris-HCl pH 7.4, 100 mM NaCl, 5 % Glycerol, 2 mM DTT and 0.2 mg/mL was used as a final concentration in 50 μL volume. For binding experiments, ligands were added to the mixture at a final concentration of 25 μM, DMSO was used as control. […] The intrinsic protein fluorescence at 330 and 350 nm was recorded. Data were analysed using Prometheus NT.48 software. Thermal shifts (ΔTm) were calculated, and Z-scores greater than 6 indicated robust stabilization. […]

PNPLA3 band intensity printed on the blot shown (DMSO 100%) (PNPLA3 I148M-tagRFP; single blot shown in Fig. S9b): 72% | PNPLA3 band, percent of intensity compared to DMSO controls (PNPLA3 I148M-tagRFP; two independent Western Blots, Mean +/- Stdev): 46+/-4% | effect on melting curve of PNPLA2 protein (PNPLA2): did not affect the melting curve
SMILES: Cc1cccc(Cc2nc(C)c(C(=O)Nc3cc(O)ccc3Cl)s2)c1 [NUV-244]

— publication PMC12049818, “Identification of NUV-244 as a PNPLA3 I148M degrading small molecule” (iScience, 2025)
